Source: BindingDB's records for doi:10.1021/jm00053a022 (University of Paris, 1993)
Non-standard residues stand in square brackets, D forms with d. Residues, ends and D or L forms follow the SMILES beside them. *: point of attachment. NMeW = CN[C@@H](Cc1c[nH]c2ccccc12)C(=O)O; 1Nal = N[C@@H](Cc1cccc2ccccc12)C(=O)O; Chg = N[C@H](C(=O)O)C1CCCCC1; Phg = N[C@H](C(=O)O)c1ccccc1; OtBu = CC(C)(C)O*

What follows are molecules tested against Gastrin/cholecystokinin type B receptor (Cavia porcellus) (assay: Displacement of [3H]pCCK-8 from cholecystokinin type B receptor in guinea pig brain membrane).
In the case of `CC(C)(C)OC(=O)[C@H](Cc1c[nH]c2ccccc12)NC(=O)[C@H](Cc1ccccc1)NC(=O)[C@H](CC(=O)O)NC(=O)[C@@H](N)Cc1cccc2ccccc12` [3-(2-Amino-3-naphthalen-1-yl-propionylamino)-N-{1-[1-tert-butoxycarbonyl-2-(1H-indol-3-yl)-ethylcarbamoyl]-2-phenyl-ethyl}-succinamic acid] (H-[1Nal]DFW-OtBu), the Ki is reported as 71 nM.
Molecule `CN(C(=O)[C@@H](NC(=O)[C@H](CC(=O)O)NC(=O)[C@@H](N)Cc1cccc2ccccc12)c1ccccc1)[C@@H](Cc1c[nH]c2ccccc12)C(=O)OC(C)(C)C` [3-(2-Amino-3-naphthalen-1-yl-propionylamino)-N-({[1-tert-butoxycarbonyl-2-(1H-indol-3-yl)-ethyl]-methyl-carbamoyl}-phenyl-methyl)-succinamic acid] (H-[1Nal]D[Phg][NMeW]-OtBu) has a Ki of 170 nM.
For `CCCC[C@H](NC(=O)[C@H](CC(=O)O)NC(=O)[C@H](Cc1cccc2ccccc12)N(C)C)C(=O)N(C)[C@@H](Cc1c[nH]c2ccccc12)C(=O)OC(C)(C)C` [N-(1-{[1-tert-Butoxycarbonyl-2-(1H-indol-3-yl)-ethyl]-methyl-carbamoyl}-pentyl)-3-(2-dimethylamino-3-naphthalen-1-yl-propionylamino)-succinamic acid], the Ki was 81 nM.
`CN(C)[C@@H](Cc1cccc2ccccc12)C(=O)N[C@@H](CC(=O)O)C(=O)N[C@H](C(=O)N[C@@H](Cc1c[nH]c2ccccc12)C(=O)OC(C)(C)C)c1ccccc1` [N-{[1-tert-Butoxycarbonyl-2-(1H-indol-3-yl)-ethylcarbamoyl]-phenyl-methyl}-3-(2-dimethylamino-3-naphthalen-1-yl-propionylamino)-succinamic acid] was tested, and the Ki was 39 nM.
Work on `CN(C)[C@@H](Cc1cccc2ccccc12)C(=O)N[C@@H](CC(=O)O)C(=O)N[C@H](C(=O)N[C@@H](Cc1c[nH]c2ccccc12)C(=O)OC(C)(C)C)C1CCCCC1` [N-{[1-tert-Butoxycarbonyl-2-(1H-indol-3-yl)-ethylcarbamoyl]-cyclohexyl-methyl}-3-(2-dimethylamino-3-naphthalen-1-yl-propionylamino)-succinamic acid] yielded a Ki of 74 nM.
`CCCC[C@H](NC(=O)[C@H](CC(=O)O)NC(=O)[C@@H](N)Cc1ccccc1)C(=O)N[C@H](Cc1c[nH]c2ccccc12)C(=O)OC(C)(C)C` [3-(2-Amino-3-phenyl-propionylamino)-N-{1-[1-tert-butoxycarbonyl-2-(1H-indol-3-yl)-ethylcarbamoyl]-pentyl}-succinamic acid] showed a Ki of 160 nM.
`CN(C(=O)[C@@H](NC(=O)[C@H](CC(=O)O)NC(=O)[C@@H](N)Cc1cccc2ccccc12)C1CCCCC1)[C@@H](Cc1c[nH]c2ccccc12)C(=O)OC(C)(C)C` [3-(2-Amino-3-naphthalen-1-yl-propionylamino)-N-({[1-tert-butoxycarbonyl-2-(1H-indol-3-yl)-ethyl]-methyl-carbamoyl}-cyclohexyl-methyl)-succinamic acid] (H-[1Nal]D[Chg][NMeW]-OtBu) showed a Ki of 140 nM.

Target: Gastrin/cholecystokinin type B receptor (Cavia porcellus)
Assay: as above
Remark: another data set of the same source
In the case of `CCCC[C@H](NC(=O)[C@H](CC(=O)O)NC(=O)[C@@H](N)Cc1ccccc1)C(=O)N[C@H](Cc1c[nH]c2ccccc12)C(=O)OC(C)(C)C` [3-(2-Amino-3-phenyl-propionylamino)-N-{1-[1-tert-butoxycarbonyl-2-(1H-indol-3-yl)-ethylcarbamoyl]-pentyl}-succinamic acid], the Ki is reported as 160 nM.
